US5133975A, “Method for in vivo inactivation of blood borne HIV virus using a mixture of ozone and oxygen” (RJH and Company, Inc., priority 1989, dated 1992)

Tests used:
coliform = conditions: in vitro, pure ozone; cited from earlier work
S. aureus = conditions: in vitro, pure ozone; cited from earlier work
Aeromonas hydrophilia = conditions: in vitro, pure ozone; cited from earlier work
enteroviruses = conditions: in vitro, pure ozone; cited from earlier work
poliovirus 2 = conditions: in vitro, pure ozone; cited from earlier work
coxsachie = conditions: in vitro, pure ozone; cited from earlier work
mice = conditions: 3 hours of inhalation; cited from earlier work
human subjects = conditions: 0.24 ppm for two hours; cited from earlier work
mammals = conditions: overdoses of pure O3; cited from earlier work
herpes simplex = test: remission of herpes lesions in patient (Example 3)

O=[O+][O-] [ozone]
inactivation of coliform (coliform): inactivates
inactivation of S. aureus (S. aureus): inactivates
inactivation of Aeromonas hydrophilia (Aeromonas hydrophilia): inactivates
inactivation of enteroviruses (enteroviruses): inactivates
inactivation of poliovirus 2 (poliovirus 2): inactivates
inactivation of coxsachie (coxsachie): inactivates
LD50 (mice): 22 ppm
cell functions (human subjects): inhibition of certain cell functions
enzyme activities (human subjects): wide fluctuations in enzyme activities
respiratory capacity (human subjects): drops in respiratory capacity
signs of overdose (mammals): pulmonary edema and hemorrhaging

Nc1nc2c(ncn2COCCO)c(=O)[nH]1 [acyclovir]
herpes lesions during treatment with acyclovir (herpes simplex): had persisted
